Test results taken from patent publication US20100324829A1, “METHOD OF SELECTING HLA-DP4 LIGANDS AND THE APPLICATIONS THEREOF” (priority 2001, published 2010).
Changes are numbered by the printed parent chain. Where two headings read alike, the source gives them in different places. Where a SMILES comes first, the peptide text is derived from it.

What was measured:
[1] = biological target: T1, HLA-DP4 molecule DPA1*0103/DPB1*0402 (DP402) (Homo sapiens, UniProt P04440+P20036, A65V/A84D/A85E/L207M); experiment: biochemical; format: binding
T1 construct: purified from various human B lymphocyte lines transformed with the Epstein Barr virus (EBV), which are homozygotes for DP; endogenous in cells
T1 sequence (P20036 29-260): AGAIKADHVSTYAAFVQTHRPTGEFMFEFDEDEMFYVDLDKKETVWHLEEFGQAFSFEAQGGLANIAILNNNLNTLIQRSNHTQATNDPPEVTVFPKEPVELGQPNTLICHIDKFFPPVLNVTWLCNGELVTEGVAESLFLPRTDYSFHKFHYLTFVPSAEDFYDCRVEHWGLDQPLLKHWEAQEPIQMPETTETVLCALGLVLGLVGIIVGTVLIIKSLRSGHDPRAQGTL
T1 sequence (P04440 30-258 A65V/A84D/A85E): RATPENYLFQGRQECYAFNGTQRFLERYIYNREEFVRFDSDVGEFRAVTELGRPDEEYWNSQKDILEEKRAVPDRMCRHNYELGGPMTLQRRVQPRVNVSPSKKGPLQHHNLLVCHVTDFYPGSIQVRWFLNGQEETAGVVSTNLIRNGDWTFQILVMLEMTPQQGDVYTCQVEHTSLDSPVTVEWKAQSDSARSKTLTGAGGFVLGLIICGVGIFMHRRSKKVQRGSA

[2] = biological target: T2, HLA-DP4 molecule DPA1*0103/DPB1*0402 (DP402) (Homo sapiens, UniProt P04440+P20036); experiment: biochemical; format: binding
T2 construct: purified from various human B lymphocyte lines transformed with the Epstein Barr virus (EBV), which are homozygotes for DP; endogenous in cells
T2 sequence (P20036 29-260): T1 sequence (P20036 29-260)
T2 sequence (P04440 30-258 A65V/A84D/A85E): T1 sequence (P04440 30-258 A65V/A84D/A85E)

[3] = biological target: T3, HLA-DP4 molecule DPA1*0103/DPB1*0401 (DP401) (Homo sapiens, UniProt P04440+P20036); experiment: biochemical; format: binding
T3 construct: purified from various human B lymphocyte lines transformed with the Epstein Barr virus (EBV), which are homozygotes for DP; endogenous in cells
T3 sequence (P20036 29-260): T1 sequence (P20036 29-260)
T3 sequence (P04440 30-258): T1 sequence (P04440 30-258 A65V/A84D/A85E) with V36A, D55A, E56A

[4] = biological target: T4, DP401 encoded by the DPA1*0103/DPB1*0401 allele (Homo sapiens, UniProt P04440+P20036); conditions: in words, summary of table V
T4 sequence (P20036 29-260): T1 sequence (P20036 29-260)
T4 sequence (P04440 30-258): T1 sequence (P04440 30-258 A65V/A84D/A85E) with V36A, D55A, E56A

[5] = DP*0402 IC50 (nM), Table XV, HLA-DP4-binding activity
[6] = IC50 (nM) 402, Table XIII, binding to DPB1*0402, competition binding assay
[7] = DP*0401 IC50 (nM), Table XV, HLA-DP4-binding activity
[8] = IC50 (nM) 401, Table XIII, binding to DPB1*0401, competition binding assay
[9] = IC50 (nM) DP0402, Api m1 overlapping peptides, tracer bUNK 1-17 10 nM, pH 5, 24 h
[10] = IC50 (nM) DP0401, Api m1 overlapping peptides, tracer bUNK 1-17 10 nM, pH 5, 24 h

Row | Molecule | DP4-binding capacity [4] | IC50 [1, 6] | IC50 [3, 8] | also measured
1 | KYFAATQWEPLAA [UNK F10W] |  |  |  | Loss of binding DP*0402 [1]: 1; Loss of binding to DP*0402 (ratio of the IC50 values for the mutant peptide and for the UNK1 peptide) [2]: 2.5; Loss of binding DP*0401 [3]: 1; Loss of binding to DP*0401 (ratio of the IC50 values for the mutant peptide and for the UNK1 peptide) [3]: 2.2
2 | RELWWVFYAGDRALEEPHAE [bUL21 283-302] | intermediate |  |  | 
3 | GPGAPADVQYDLYLNVANRR [bIL3 127-146, reference compound] | high |  |  | 
4 | GVQIVRQIRSGERFLKIWSQ [bNS-p2, reference compound] | intermediate |  |  | 
5 | CSCC[C@H](NC(=O)[C@@H]1CCCN1C(=O)[C@@H](NC(=O)[C@H](C)NC(=O)[C@H](Cc1ccccc1)NC(=O)[C@@H]1CCCN1C(=O)[C@H](CCSC)NC(=O)[C@H](C)NC(=O)[C@H](CC(C)C)NC(=O)[C@H](Cc1ccc(O)cc1)NC(=O)[C@H](Cc1ccccc1)NC(=O)[C@H](CCC(=O)O)NC(=O)[C@H](CC(C)C)NC(=O)[C@@H](N)CC(C)C)[C@@H](C)O)C(=O)N[C@@H](CCC(=O)O)C(=O)N[C@@H](C)C(=O)N[C@@H](CCC(=O)O)C(=O)N[C@@H](CC(C)C)C(=O)N[C@@H](C)C(=O)N[C@@H](CCCNC(=N)N)C(=O)N[C@@H](CCCNC(=N)N)C(=O)N[C@@H](CO)C(=O)N[C@@H](CC(C)C)C(=O)N[C@@H](C)C(=O)N[C@@H](CCC(N)=O)C(=O)O [NY-ESO1 87-111] |  | 83 nM | 183 nM | IC50 [1, 5]: 87 nM; IC50 [3, 7]: 186 nM
6 | CC[C@H](C)[C@H](NC(=O)[C@H](CC(C)C)NC(=O)[C@H](CC(N)=O)NC(=O)[C@H](Cc1ccccc1)NC(=O)[C@H](Cc1ccc(O)cc1)NC(=O)[C@H](CCSC)NC(=O)[C@H](CCCCN)NC(=O)CNC(=O)[C@@H](NC(=O)[C@H](Cc1ccccc1)NC(=O)[C@H](Cc1ccc(O)cc1)NC(=O)[C@H](CO)NC(=O)[C@H](CO)NC(=O)[C@@H](NC(=O)[C@@H](N)[C@@H](C)O)[C@@H](C)CC)C(C)C)C(=O)N[C@@H](CC(=O)O)C(=O)N[C@H](C(=O)N[C@@H](CCCCN)C(=O)O)[C@@H](C)O [77-94] (H-TISSYFVGKMYFNLIDTK-OH; N-terminus and C-terminus assumed) |  | 175 nM | 450 nM | IC50 [1, 9]: 175 nM; IC50 [3, 10]: 450 nM
7 | FNNFTVSFWLRVPKVSA [bTT 947-963] | low |  |  | 
8 | IAFNSGMEPGVVAEKV [bMT 451-466, reference compound] | low |  |  | 
9 | CC[C@H](C)[C@H](NC(=O)[C@H](CCCCN)NC(=O)[C@H](CC(C)C)NC(=O)[C@H](Cc1ccccc1)NC(=O)[C@H](CCCNC(=N)N)NC(=O)[C@H](CCC(=O)O)NC(=O)CNC(=O)[C@H](CO)NC(=O)[C@H](CCCNC(=N)N)NC(=O)[C@@H](NC(=O)[C@H](CCC(N)=O)NC(=O)[C@H](CCCNC(=N)N)NC(=O)[C@@H](NC(=O)[C@@H](NC(=O)[C@H](CCC(N)=O)NC(=O)[C@@H](NC(=O)CN)C(C)C)[C@@H](C)CC)C(C)C)[C@@H](C)CC)C(=O)N[C@@H](Cc1c[nH]c2ccccc12)C(=O)N[C@@H](CO)C(=O)N[C@@H](CCC(N)=O)C(=O)O [NS-p2, reference compound] |  |  |  | IC50 [1]: 40 nM; IC50 [3]: 40 nM
10 | CSCC[C@H](NC(=O)[C@@H](N)CC(C)C)C(=O)N[C@@H](CC(=O)O)C(=O)N[C@@H](CCCCN)C(=O)N[C@@H](CO)C(=O)N[C@@H](CC(C)C)C(=O)N[C@@H](Cc1c[nH]cn1)C(=O)N[C@H](C(=O)NCC(=O)N[C@H](C(=O)N[C@@H](CCC(N)=O)C(=O)N[C@@H](CS)C(=O)N[C@@H](C)C(=O)N[C@@H](CC(C)C)C(=O)N[C@H](C(=O)N[C@@H](CCCNC(=N)N)C(=O)N[C@@H](CCCNC(=N)N)C(=O)N[C@@H](CS)C(=O)N1CCC[C@H]1C(=O)N[C@@H](CCC(N)=O)C(=O)O)[C@@H](C)O)[C@@H](C)O)C(C)C [MART1 62-72] |  | > 10000 nM | > 10000 nM | IC50 [1, 5]: > 10000 nM; IC50 [3, 7]: > 10000 nM
11 | CC[C@H](C)[C@H](NC(=O)[C@@H](NC(=O)[C@H](CC(=O)O)NC(=O)[C@H](C)NC(=O)[C@H](CO)NC(=O)[C@H](CC(N)=O)NC(=O)[C@H](CCCCN)NC(=O)[C@H](CC(C)C)NC(=O)[C@H](CS)NC(=O)[C@@H](N)CC(=O)O)[C@@H](C)O)C(=O)N[C@@H](CO)C(=O)N[C@@H](CO)C(=O)N[C@@H](Cc1ccc(O)cc1)C(=O)N[C@@H](Cc1ccccc1)C(=O)N[C@H](C(=O)NCC(=O)N[C@@H](CCCCN)C(=O)N[C@@H](CCSC)C(=O)O)C(C)C [69-86] |  | > 10000 nM | > 10000 nM | IC50 [1, 9]: > 10000 nM; IC50 [3, 10]: > 10000 nM
12 | LLTQHFVQENYLEY [bMAG 245-258] | intermediate |  |  | 
